Results: ChEMBL document CHEMBL5038569, “Targeting RECQL5 Functions, by a Small Molecule, Selectively Kills Breast Cancer in Vitro and in Vivo” (J Med Chem, 2021)
Active and inactive are the calls of the source. No cut-off for these calls is given here.

Assays:
[1] = Chronic toxicity in […] mouse assessed as change in body weight at 100 mg/kg, po administered as single dose via gavage measured for 30 days; assay type: organism-based; settings: in vivo, 720 h, time 30 day
MCF7 [2] = experiment: Inhibition of homologous recombinant repair in RECQL5 knock out human MCF7 cells assessed as stabilization of RAD51-RECQL5 interaction by measuring increase in RAD51 foci formation at 20 uM measured after 4 to 24 hrs by immunofluorescence microscopic analysis; assay type: functional, cell-based; settings: time 4-24 hrs
[3] = Toxicity in […] mouse assessed as fold change in creatinine level at 100 mg/kg, po administered as single dose via gavage measured after 30 days relative to control; assay type: organism-based; settings: in vivo, 720 h, time 30 day
MCF7 [4] = experiment: Cytotoxicity against RECQL5 knock out human MCF7 cells assessed as inhibition of colony formation measured after 8 to 10 days by clonogenic survival assay; assay type: functional, cell-based
T47D = experiment: Cytotoxicity against ER/PR-positive HER2-negative CRISPR/Cas9 engineered human T47D cells expressing wild type RECQL5 and p53 mutant assessed as reduction in colony formation measured after 8 to 10 days by clonogenic survival assay; assay type: functional, cell-based; settings: time 8-10 day
[5] = Chronic toxicity in […] mouse assessed as change in stool texture at 100 mg/kg, po administered as single dose via gavage measured for 30 days; assay type: organism-based; settings: in vivo, 720 h, time 30 day

Q: With `O=C(Nc1cc(C(F)(F)F)cc(C(F)(F)F)c1)N[C@@H](c1ccccc1)c1nnc(SCc2ccccc2)o1` as the molecule, how does the Activity [1] read?
A: Its Activity is “Non-Toxic”.

Q: And the inhibition (MCF7 [2])?
A: The inhibition was “inactive”.

Q: What about the “fold change (FC)” value [3] of the same molecule?
A: Its value is 1.05.

Q: What about the IC50 (MCF7 [4]) of the same molecule?
A: The IC50 was 19.6 µM.

Q: What about the Activity (T47D) of the same molecule?
A: Its Activity is “Active”.

Q: What about the Activity [5] of the same molecule?
A: The Activity was “Non-Toxic”.
